According to patent US12568967B2, “Compositions comprising pyridine carboxylate herbicides with synthetic auxin herbicides or auxin transport inhibitors” (priority 2018, dated 2026):
Where “and” joins values, the source holds several entries; their conditions need not be identical. Equal values may be shown once. Read-outs that look alike come from different tables or passages of the source.

Key:
[1] = test system: Salsola kali (Russian thistle, SASKR); experiment: Greenhouse postemergence trial SASKR; format: in vivo;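 note: greenhouse plants sprayed at second or third true leaf stage, injury rated by eye after 20-22 d against solvent-blank controls, 0 meaning no injury, 100 complete kill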
[2] = test system: Chenopodium album L. (common lambsquarters, CHEAL); experiment: Greenhouse postemergence trial CHEAL; format: in vivo;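 note: greenhouse plants sprayed at second to third true leaf stage, injury rated by eye after 20-22 d versus solvent-blank sprayed controls, 0 = no injury, 100 = complete kill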
Description: The plants were grown for 7-36 days (d) in a greenhouse with an approximate 14-hour (h) photo-period which was maintained at about 23° C. during the day and 22° C. during the night. Nutrients and water were added on a regular basis and supplemental lighting was provided with overhead metal halide 1000-Watt lamps as necessary. The plants were employed for testing when they reached the second or third true leaf stage.
The emulsifiable concentrates also included a safener, cloquintocet-mexyl, at 120 grams active ingredient per liter (g ai/L), unless otherwise noted below.
Control plants were sprayed in the same manner with the solvent blank. All pyridine carboxylate herbicide (component a) application rates are given as “g ae/ha” and all synthetic auxin herbicide or auxin transport inhibitor (component b) application rates are given as “g ai/ha.”
(§1) The treated plants and control plants were placed in a greenhouse as described above and watered by sub-irrigation to prevent wash-off of the test compounds. After 20-22 d, the condition of the test plants as compared with that of the control plants was determined visually and scored on a scale of 0 to 100 percent where 0 corresponds to no injury and 100 corresponds to complete kill.

[3] = test system: Matricaria chamomilla (wild chamomile, MATCH); experiment: Greenhouse postemergence trial MATCH; format: in vivo;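 note: greenhouse plants sprayed at second to third true leaf stage, injury rated by eye 20-22 d later versus solvent-blank controls on 0–100 scale, 0 no injury, 100 complete kill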
[4] = test system: Hordeum vulgare (spring barley, HORVS); format: in vivo
Description: (§2) Seeds of the desired test plant species were planted in a 90:10% v/v (volume/volume) mixture of PRO-MIX® BX (Premier Tech Horticulture, Quakertown, PA, USA) and PROFILE® GREENS GRADE™ (Profile Products LLC, Buffalo Grove, IL, USA) planting mixture, which typically has a pH of 5.2 to 6.2 and an organic matter content of at least 50 percent, in plastic pots with a surface area of 103.2 square centimeters (cm^2). […] The plants were grown for 7-36 days (d) in a greenhouse with an approximate 14-hour (h) photo-period which was maintained at about 23° C. during the day and 22° C. during the night. Nutrients and water were added on a regular basis and supplemental lighting was provided with overhead metal halide 1000-Watt lamps as necessary. The plants were employed for testing when they reached the second or third true leaf stage.
(§3) Emulsifiable concentrates of each of each pyridine carboxylate herbicide (Compound A or Compound B) were prepared at 100 grams acid equivalent per liter (g ae/L). The emulsifiable concentrates also included a safener, cloquintocet-mexyl, at 120 grams active ingredient per liter (g ai/L), unless otherwise noted below. An aliquot of each emulsifiable concentrate was placed in a 25 mL glass vial and diluted with an aqueous mixture of 1.25% (v/v) ACTIROB® B esterified rapeseed oil (Bayer Crop Science, Research Triangle Park, NC, USA) or MSO® Concentrate with LECI-TECH® methylated soybean oil (Loveland Products, Loveland, CO, USA) to obtain concentrated stock solutions at the highest application rate for each herbicide, based upon a 12 milliliter (mL) application volume at a rate of 187 liters per hectare (L/ha). The concentrated stock solutions were further diluted with an aqueous mixture of 1.25% v/v ACTIROB® B or MSO® Concentrate with LECI-TECH® to obtain stock solutions at reduced application rates for each herbicide. Spray solutions of the herbicide combinations (Compound A or Compound B plus synthetic auxin herbicide or auxin transport inhibitor) were prepared by adding weighed amounts or aliquots of the synthetic auxin herbicide or auxin transport inhibitor to the stock solutions of Compound A or Compound B to form 12-mL spray solutions in two-way combinations.
(§4) The spray solutions were applied to the plant material with an overhead Mandel track sprayer equipped with 8002E nozzles calibrated to deliver 187 L/ha over an application area of 0.503 square meters (m^2) at a spray height of 18 inches (43 centimeters (cm)) above the average plant canopy. Control plants were sprayed in the same manner with the solvent blank. All pyridine carboxylate herbicide (component a) application rates are given as “g ae/ha” and all synthetic auxin herbicide or auxin transport inhibitor (component b) application rates are given as “g ai/ha.”
as §1

[5] = test system: Viola arvensis (field violet, VIOAR); experiment: Greenhouse postemergence trial VIOAR; format: in vivo; details: for % visual injury Obs: alone; for % visual injury, Obs: applied alone; for % visual injury: c1-3 Compound A 7.5/10/15
[6] = test system: Veronica persica (bird's-eye speedwell, VERPE); experiment: Greenhouse postemergence trial VERPE; format: in vivo; details: for % visual injury Obs / visual injury, Obs / % visual injury, Obs: VERPE; for % visual injury, Obs: applied alone
[7] = test system: Anthemis arvensis (field chamomile, ANTAR); experiment: Greenhouse postemergence trial ANTAR; format: in vivo; details: ANTAR; for % visual injury Obs: alone; for % visual injury, Obs: applied alone
[8] = test system: Rumex obtusifolius (broad-leaf dock, RUMOB); experiment: Greenhouse postemergence trial RUMOB; format: in vivo; details: Compound A 10 g/ha
[9] = test system: Glycine max (volunteer soybean, GLXMA); experiment: Greenhouse postemergence trial GLXMA; format: in vivo; details: Compound A 10 g/ha
Description: as §2, §3, §4, §1

[10] = test system: Alopecurus myosuroides (blackgrass, ALOMY); experiment: Greenhouse postemergence trial ALOMY; format: in vivo; details: Compound A 10 g/ha
Description: as §2
(§5) Emulsifiable concentrates of each of each pyridine carboxylate herbicide (Compound A or Compound B) were prepared at 100 grams acid equivalent per liter (g ae/L). The emulsifiable concentrates also included a safener, cloquintocet-mexyl, at 120 grams active ingredient per liter (g ai/L), unless otherwise noted below. An aliquot of each emulsifiable concentrate was placed in a 25 mL glass vial and diluted with an aqueous mixture of 1.25% (v/v) ACTIROB® B esterified rapeseed oil (Bayer Crop Science, Research Triangle Park, NC, USA) or MSO® Concentrate with LECI-TECH® methylated soybean oil (Loveland Products, Loveland, CO, USA) to obtain concentrated stock solutions at the highest application rate for each herbicide, based upon a 12 milliliter (mL) application volume at a rate of 187 liters per hectare (L/ha). The concentrated stock solutions were further diluted with an aqueous mixture of 1.25% v/v ACTIROB® B or MSO® Concentrate with LECI-TECH® to obtain stock solutions at reduced application rates for each herbicide. Spray solutions of the herbicide combinations (Compound A or Compound B plus synthetic auxin herbicide or auxin transport inhibitor) were prepared by adding weighed amounts or aliquots of the synthetic auxin herbicide or auxin transport inhibitor to the stock solutions of Compound A or Compound B to form 12-mL spray solutions in two-way combinations. […]
as §1

[11] = test system: Avena fatua (wild oat, AVEFA); experiment: Greenhouse postemergence trial AVEFA; format: in vivo; details: Compound A 10 g/ha
Description: as §2, §5, §1

[12] = test system: Lolium multiflorum (Italian ryegrass, LOLMU); experiment: Greenhouse postemergence trial LOLMU; format: in vivo; details: Compound A 10 g/ha
Description: as §2, §3, §4, §1

[13] = test system: Echinochloa crus-galli (barnyard grass, ECHCG); experiment: Greenhouse postemergence trial ECHCG; format: in vivo; details: Compound A 10 g/ha
Description: as §2, §3, §4, §1

[14] = test system: Leptochloa chinensis (Chinese sprangletop, LEFCH); experiment: Greenhouse postemergence trial LEFCH; format: in vivo; details: Compound A 10 g/ha
Description: as §2, §5, §1

[15] = test system: Viola tricolor (wild pansy, VIOTR); experiment: Greenhouse postemergence trial VIOTR;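 note: greenhouse plants sprayed at second to third true leaf stage, injury rated visually after 20-22 d against solvent-blank sprayed controls, 0 meaning no injury and 100 complete kill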
[16] = Hordeum vulgare (spring barley, HORVS), in vivo
[17] = Viola tricolor, post-emergence, read-out: % visual injury Obs

N#CCOC(=O)c1nc(-c2ccc3cc[nH]c3c2F)c(F)c(N)c1Cl [Compound A, cyanomethyl 4-amino-3-chloro-5-fluoro-6-(7-fluoro-1H-indol-6-yl)pyridine-2-carboxylate]
SASKR Obs (% visual injury) ([1]; Compound A 10 g/ha): 65% and 63% | SASKR % visual injury Obs ([1]; Compound A 10 g/ha (Table 42)): 65% | SASKR % visual injury Obs ([1]; Compound A 10 g/ha (Table 43)): 65% | SASKR % visual injury Obs ([1]; Compound A 10 g/ha (Table 44)): 65% | % visual injury, Obs ([1]; SASKR, Compound A 10 g/ha): 65% | visual injury, Obs ([1]; SASKR, Compound A 10 g/ha alone): 50% | visual injury, Obs ([1]; SASKR, Compound A 15 g/ha alone): 50% | % visual injury (Obs) ([1]; SASKR, alone, 10 g/ha): 63% | % visual injury Obs ([1]; SASKR, alone, 10 g/ha): 50% | % visual injury Obs ([1]; SASKR, alone, 15 g/ha): 50% | % visual injury, Obs ([1]; SASKR, applied alone, 10 g/ha): 50% and 63% | % visual injury, Obs ([1]; SASKR, applied alone, 15 g/ha): 50% | pest or weed control at […] ([1]; Salsola kali, post-emergence, SASKR, Compound A 7.5 g/ha, read-out: % visual injury Obs): 30% | pest or weed control at 10 g/ha ([1]; Salsola kali, post-emergence, SASKR, Compound A 10 g/ha, read-out: % visual injury Obs): 50% | pest or weed control at 15 g/ha ([1]; Salsola kali, post-emergence, SASKR, Compound A 15 g/ha, read-out: % visual injury Obs): 50% | % visual injury, Obs ([2]; CHEAL, Compound A 10 g/ha): 88% and 78% | % visual injury (Obs) ([2]; CHEAL, alone 10 g/ha): 90% and 78% | % visual injury, Obs ([2]; CHEAL, applied alone, 10 g/ha): 80% | CHEAL Obs (% visual injury) ([2]; Compound A 10 g/ha): 88% and 90% | CHEAL % visual injury Obs ([2]; Compound A 10 g/ha (Table 42)): 88% | CHEAL % visual injury Obs ([2]; Compound A 10 g/ha (Table 43)): 88% | CHEAL % visual injury Obs ([2]; Compound A 10 g/ha (Table 44)): 88% | MATCH % visual injury Obs ([3]; Compound A 10 g/ha (Table 42)): 13% | MATCH % visual injury Obs ([3]; Compound A 10 g/ha (Table 43)): 13% | MATCH % visual injury Obs ([3]; Compound A 10 g/ha (Table 44)): 13% | % visual injury, Obs ([3]; MATCH, Compound A 10 g/ha): 30% | visual injury, Obs ([3]; MATCH, Compound A 10 g/ha alone): 20% | visual injury, Obs ([3]; MATCH, Compound A 15 g/ha alone): 20% | % visual injury (Obs) ([3]; MATCH, alone 10 g/ha): 33% and 30% | % visual injury Obs ([3]; MATCH, alone 10 g/ha): 20% | % visual injury Obs ([3]; MATCH, alone, 15 g/ha): 20% | % visual injury, Obs ([3]; MATCH, applied alone, 10 g/ha): 20% | % visual injury, Obs ([3]; MATCH, applied alone, 15 g/ha): 20% | pest or weed control at […] ([3]; Matricaria chamomilla, post-emergence, MATCH, Compound A 7.5 g/ha, read-out: % visual injury Obs): 15% | pest or weed control at 10 g/ha ([3]; Matricaria chamomilla, post-emergence, MATCH, Compound A 10 g/ha, read-out: % visual injury Obs): 20% | pest or weed control at 15 g/ha ([3]; Matricaria chamomilla, post-emergence, MATCH, Compound A 15 g/ha, read-out: % visual injury Obs): 20% | HORVS Obs (% visual injury) ([4]; Compound A 10 g/ha): 0% | HORVS % visual injury Obs ([4]; Compound A 10 g/ha (Table 42)): 0% | HORVS % visual injury Obs ([4]; Compound A 10 g/ha (Table 43)): 0% | HORVS % visual injury Obs ([4]; Compound A 10 g/ha (Table 44)): 0% | % visual injury Obs ([4]; HORVS, Compound A 10 g/ha): 0% | % visual injury, Obs ([4]; HORVS, Compound A 10 g/ha): 0% | visual injury, Obs ([4]; HORVS, Compound A 10 g/ha alone): 0% | % visual injury Obs ([4]; HORVS, Compound A 15 g/ha): 0% | visual injury, Obs ([4]; HORVS, Compound A 15 g/ha alone): 0% | % visual injury (Obs) ([4]; HORVS, alone 10 g/ha): 0% | % visual injury Obs ([4]; HORVS, alone 10 g/ha): 0% | % visual injury Obs ([4]; HORVS, alone, 15 g/ha): 0% | % visual injury, Obs ([4]; HORVS, applied alone, 10 g/ha): 0% | % visual injury, Obs ([4]; HORVS, applied alone, 15 g/ha): 0% | % visual injury (crop phytotoxicity) [4, 16]: 0% | % visual injury, Obs (crop phytotoxicity) [4, 16]: 0% | % visual injury (crop phytotoxicity) ([4]; c1-2 Compound A 7.5/10, c3 Quinclorac 140, c4-5 A 7.5/10 + Quinclorac 140 g/ha): 0% | % visual injury (crop phytotoxicity) ([4]; c1-3 Compound A 7.5/10/15, c4-5 Fluroxypyr-MHE 100/140, c6-8, c9-11 A 7.5/10/15 + Fluroxypyr-MHE 100, 140 g/ha): 0% | % visual injury (crop phytotoxicity) ([4]; c1-3 Compound A 7.5/10/15, c4 Aminopyralid 5, c5-7 A 7.5/10/15 + Aminopyralid 5 g/ha): 0% | % visual injury (crop phytotoxicity) ([4]; c1-3 Compound A 7.5/10/15, c4 Halauxifen-methyl 6, c5-7 A 7.5/10/15 + Halauxifen-methyl 6 g/ha): 0% | visual injury, Obs ([5]; VIOAR, Compound A 10 g/ha alone): 10% | visual injury, Obs ([5]; VIOAR, Compound A 15 g/ha alone): 15% | % visual injury Obs ([5]; VIOAR, 10 g/ha): 10% | % visual injury Obs ([5]; VIOAR, 15 g/ha): 15% | % visual injury, Obs ([5]; VIOAR, 10 g/ha): 10% | % visual injury, Obs ([5]; VIOAR, 15 g/ha): 15% | pest or weed control at […] ([5]; Viola arvensis, post-emergence, VIOAR, Compound A 7.5 g/ha, read-out: % visual injury Obs): 10% | pest or weed control at 10 g/ha ([5]; Viola arvensis, post-emergence, VIOAR, Compound A 10 g/ha, read-out: % visual injury Obs): 10% | pest or weed control at 15 g/ha ([5]; Viola arvensis, post-emergence, VIOAR, Compound A 15 g/ha, read-out: % visual injury Obs): 15% | % visual injury ([5]; c4-5 Fluroxypyr-MHE 100/140, c6-8, c9-11 A 7.5/10/15 + Fluroxypyr-MHE 100, 140 g/ha): 5% | % visual injury ([5]; c4-6 Clopyralid 30/60/120, c7-9, c10-12, c13-15 A 7.5/10/15 + Clopyralid 30, 60, 120 g/ha): 5% | % visual injury ([5]; c4 Aminopyralid 5, c5-7 A 7.5/10/15 + Aminopyralid 5 g/ha): 5% | % visual injury ([5]; c4 Halauxifen-methyl 6, c5-7 A 7.5/10/15 + Halauxifen-methyl 6 g/ha): 5% | % visual injury Obs ([6]; Compound A 10 g/ha): 85% | visual injury, Obs ([6]; Compound A 10 g/ha alone): 85% | % visual injury Obs ([6]; Compound A 15 g/ha): 95% | visual injury, Obs ([6]; Compound A 15 g/ha alone): 95% | % visual injury Obs ([6]; alone, 10 g/ha): 85% | % visual injury Obs ([6]; alone, 15 g/ha): 95% | % visual injury, Obs ([6]; 10 g/ha): 85% | % visual injury, Obs ([6]; 15 g/ha): 95% | pest or weed control at […] ([6]; Veronica persica, post-emergence, VERVE, Compound A 7.5 g/ha, read-out: % visual injury Obs): 80% | pest or weed control at 10 g/ha ([6]; Veronica persica, post-emergence, VERVE, Compound A 10 g/ha, read-out: % visual injury Obs): 85% | pest or weed control at 15 g/ha ([6]; Veronica persica, post-emergence, VERVE, Compound A 15 g/ha, read-out: % visual injury Obs): 95% | visual injury, Obs ([7]; Compound A 10 g/ha alone): 100% | visual injury, Obs ([7]; Compound A 15 g/ha alone): 100% | % visual injury Obs ([7]; 10 g/ha): 100% | % visual injury Obs ([7]; 15 g/ha): 100% | % visual injury, Obs ([7]; 10 g/ha): 100% | % visual injury, Obs ([7]; 15 g/ha): 100% | pest or weed control at […] ([7]; Anthemis arvensis, post-emergence, Compound A 7.5 g/ha, read-out: % visual injury Obs): 95% | pest or weed control at 10 g/ha ([7]; Anthemis arvensis, post-emergence, Compound A 10 g/ha, read-out: % visual injury Obs): 100% | pest or weed control at 15 g/ha ([7]; Anthemis arvensis, post-emergence, Compound A 15 g/ha, read-out: % visual injury Obs): 100% | RUMOB Obs (% visual injury) [8]: 10% | RUMOB Obs (% visual injury) ([8]; without safener): 35% | % visual injury, Obs ([8]; RUMOB): 35% | GLXMA Obs (% visual injury) ([9]; without safener): 85% | % visual injury, Obs ([9]; GLXMA): 85% | % visual injury, Obs ([10]; ALOMY): 0% | ALOMY Obs (% visual injury) ([10]; without safener): 0% | % visual injury, Obs ([11]; AVEFA): 0% | AVEFA Obs (% visual injury) ([11]; without safener): 0% | LOLMU Obs (% visual injury) [12]: 0% | LOLMU Obs (% visual injury) ([12]; without safener): 0% | % visual injury, Obs ([12]; LOLMU): 0% | ECHCG Obs (% visual injury) [13]: 78% | ECHCG Obs (% visual injury) ([13]; without safener): 58% | % visual injury, Obs ([13]; ECHCG): 58% | LEFCH Obs (% visual injury) ([14]; without safener): 0% | % visual injury, Obs ([14]; LEFCH): 0% | VIOTR Obs (% visual injury) ([15]; Compound A 10 g/ha): 18% | VIOTR Obs (% visual injury) ([15]; Compound A 10 g/ha, without safener): 15% | % visual injury Obs ([15]; VIOTR, Compound A 10 g/ha): 30% | % visual injury, Obs ([15]; VIOTR, Compound A 10 g/ha): 15% | visual injury, Obs ([15]; VIOTR, Compound A 10 g/ha alone): 30% | visual injury, Obs ([15]; VIOTR, Compound A 15 g/ha alone): 50% | % visual injury (Obs) ([15]; VIOTR, alone, 10 g/ha): 23% | % visual injury Obs ([15]; VIOTR, alone, 10 g/ha): 30% | % visual injury Obs ([15]; VIOTR, alone, 15 g/ha): 50% | % visual injury, Obs ([15]; VIOTR, applied alone, 10 g/ha): 30% | % visual injury, Obs ([15]; VIOTR, applied alone, 15 g/ha): 50% | pest or weed control at 10 g/ha [15, 17]: 30% | pest or weed control at 15 g/ha [15, 17]: 50%
